Laboratory results taken from patent US5364870A (priority 1993, dated 1994).

Tests used:
Experiment in all cases: whole plant or invertebrate
Format in all cases: in vivo
[1] = system: cucumber downy mildew (Pseudoperonospora cubensis); settings: 168 h, read-out: % Control CDM (percent disease control)
[2] = system: wheat powdery mildew (Erysiphe graminis f. sp. tritici); settings: Blumeria graminis, read-out: % Control WPM (percent disease control)
[3] = system: rice sheath blight (Pellicularia filamentosa f. sp. sasiki); settings: Oryza sativa, 120 h, read-out: % Control RSB (percent disease control)
[4] = system: rice blast (Piricularia oryzae); settings: Pyricularia oryzae, 192 h, read-out: % Control RB (percent disease control)
[5] = system: wheat stem rust (Puccinia graminis f. sp. tritici Race 15B-2); settings: 336 h, read-out: % Control WSR (percent disease control)

Compound	pest or weed control at 200 ppm [1]	pest or weed control at 200 ppm [2]	pest or weed control at 200 ppm [3]	pest or weed control at 200 ppm [4]	pest or weed control at 200 ppm [5]
CCCCC(Cn1cncn1)(NC(C)=O)c1ccc(Cl)cc1 (stereo not shown) [Example 10, N-[2-(4-Chlorophenyl)-1-(1,2,4-triazol-1-yl)-2-hexyl]acetamide]	0%	30%	70%	0%	0%
CCCCC(C=O)(Cn1cncn1)c1ccc(Cl)cc1 (stereo not shown) [Example 3, 2-(4-Chlorophenyl)-2-[(1,2,4-triazol-1-yl)methyl]hexanal]	0%	100%	50%	70%	100%
CCCCC(C=NO)(Cn1cncn1)c1ccc(Cl)cc1 (stereo not shown) [Example 6, 2-(4-Chlorophenyl)-(E,Z)-1-hydroxyamino-2-[(1,2,4-triazol-1-yl)methyl]hexanal]	0%	100%	0%	0%	100%
CCCCC(CNC=O)(Cn1cncn1)c1ccc(Cl)cc1 (stereo not shown) [Example 1, N-(2-(4-Chlorophenyl)-2-[(1,2,4-triazol-1-yl)methyl]hexyl)formamide]	0%	80%	0%	0%	0%
CCCCC(Cn1cncn1)(NC=O)c1ccc(Cl)cc1 (stereo not shown) [Example 8, N-[2-(4-Chlorophenyl)-1-(1,2,4-triazol-1-yl)-2-hexyl]formamide]	0%	100%	–	0%	60%
[C-]#[N+]CC(CCCC)(Cn1cncn1)c1ccc(Cl)cc1 (stereo not shown) [Example 2, 2-(4-Chlorophenyl)-2-[(1,2,4-triazol-1-yl)methyl]hexylisocyanide]	0%	80%	0%	0%	100%
[C-]#[N+]C(CCCC)(Cn1cncn1)c1ccc(Cl)cc1 (stereo not shown) [Example 9, 2-(4-Chlorophenyl)-1-(1,2,4-triazol-1-yl)-2-hexylisocyanide]	0%	100%	0%	80%	90%
C=CC(CCCC)(Cn1cncn1)c1ccc(Cl)cc1 (stereo not shown) [Example 4, 3-(4-Chlorophenyl)-3-[(1,2,4-triazol-1-yl)methyl]-1-heptene]	80%	100%	60%	80%	100%
CCCCC(Cn1cncn1)(C(=O)N=[N+]=[N-])c1ccc(Cl)cc1 (stereo not shown) [Example 5, 2-(4-Chlorophenyl)-2-[(1,2,4-triazol-1-yl)methyl]hexanoylazide]	20%	100%	0%	–	70%
